According to patent US8207223B2, “Pharmaceutical composition for treatment of diseases associated with decrease in bone mass comprising EP4 agonist as active ingredient” (Ono Pharmaceutical Co., Ltd., priority 2001, dated 2012):
Blank lines part the entries; values can stand above or below the molecule they belong to.

Legend:
[1] = molecular target: T1, murine EP4 (Mus musculus, UniProt P32240); assay: Receptor-binding experiment (3H-PGE2 binding inhibition) using membranes of CHO cells expressing prostanoid receptor sub-types; conditions: binding to EP4 receptor, CHO cell membranes, read-out: Dissociation Constant Ki
T1 construct: expressed in transfected cells; host or cells: CHO cells (membrane fraction)
Experimental: (i) Experiment for receptor-binding using cells which express prostanoid receptor sub-types
According to the method of Sugimoto et al. (J. Biol. Chem., 267, 6463-6466 (1992)), CHO cells which expressed prostanoid receptor sub-types (murine EP1, EP2, EP3α, and EP4, respectively) were prepared and used as membrane authentic samples.
A reaction solution (200 μl) containing the prepared membrane fraction (0.5 mg/ml) and ^3H-PGE2 was incubated at room temperature for 1 hour. The reaction was terminated with ice cold buffer (3 ml), and the reaction mixture was filtered under suction through a glass filter (GF/B), on which the binding ^3H-PGE2 was trapped, and the binding radioactivity was measured by means of a liquid scintillator.
The Kd value was obtained from the Acatchard plots [Ann. N.Y. Acad. Sci., 51, 660 (1949)]. Non-specific binding was obtained as the binding in the presence of an excess amount (2.5 μM) of unlabelled PGE2. Measurement of the binding inhibition for ^3H-PGE2 with the compounds of the invention was performed by adding ^3H-PGE2 (2.5 nM) and a series of concentrations of the compound of the invention. In this reaction, the following buffer was used in all cases. • Buffer: 10 mM potassium phosphate (pH 6.9), 1 mM EDTA, 10 mM MgCl2, and 0.1M NaCl.
Dissociation constant Ki (μM) of each compound was calculated from the following equation. Ki=IC50/(1+([C]/Kd))

[2] = tested on: collagen-induced arthritis; assay: Arthritis induced by collagen in rats; format: in vivo, female DA/Slc rat; conditions: limbs scored at 27 days, full score 30, *p < 0.05
Experimental: (iv) Inhibitive Effect for Chronic Articular Rheumatism
(1) Arthritis Induced by Collagen in Rats
Experiment was performed according to the method of Osterman et al. (Inflamm. Res., 44, 258-263). An inducing agent (an emulsion prepared by adding an equal volume of physiological saline and 2 equivalent volume of incomplete Freund adjuvant to 0.3% solution of type II collagen of bovine origin) 0.1 ml each was applied intracutaneously to the 4 sites of the back of a female DA/Slc rat. After a lapse of 1 week, the same inducing agent was further applied intracutaneously to the tail root to induce arthritis. At 27 days the limbs were scored responding to the degree of redness and edema and assessed as 30 was regarded as full scores. The compound of the invention was dissolved in an equimolar amount of 0.02 mole/L sodium hydroxide solution, diluted with distilled water, and orally given 3 times a day from the next day of the first administration of inducer.

[3] = tested on: fibula bone fracture; assay: Effect of accelerating cure of bone fracture (rat fibula fracture model; callus bone density and three-point bending strength); format: in vivo, male IGS rats; conditions: 50 ng/kg/min intravenously for 2 hours twice a day for 21 days
Experimental: (ix) Effect of Accelerating Cure of Bone Fracture
According to the methods of R. Sakai (Bone, 25, 191-196 (1999)), H. Kawaguchi (Endocrinology, 135, 774-781 (1994)) and T. Hoshino (J. Biomed Mater Res., 51, 229-306 (2000)), a bone fracture model was prepared with male IGS rats of 8 weeks of age. Hair of the left hind-limb of a rat was cut under anesthetization with pentobarbital Na, and Viccillin S 500 (500 mg potency) (Meiji Seika) was intramuscularly injected at a dose of 10 mg potency/100 μl distilled water/body. Then, the skin on the fibula (from the back of knee joint to tendo Achillis) was incised to ablate the muscular tissue and expose the fibula. […] The recovered fibulae were taken radiographs to assess development of the cure of fracture based on the presence of a fracture line and callus formation, and the density and strength of the bone around the fracture portion were measured. […]
The bone density of the callus region at the fracture position of the recovered fibula was measured referring to the reports of C. […] During photographing, a phantom for quantitative analysis of bone salt for mice (Kyoto Kagaku Co.) was set together in order to make an analytical curve for measurement of bone density. The image was read by a Bio-imaging Analyzer BAS-1800 (FUJIFILM)/Image Reader (FUJIFILM) and processed with an Image Gauge, ver.3.1.12 (FUJIFILM). […]

T1 sequence (P32240 whole entry): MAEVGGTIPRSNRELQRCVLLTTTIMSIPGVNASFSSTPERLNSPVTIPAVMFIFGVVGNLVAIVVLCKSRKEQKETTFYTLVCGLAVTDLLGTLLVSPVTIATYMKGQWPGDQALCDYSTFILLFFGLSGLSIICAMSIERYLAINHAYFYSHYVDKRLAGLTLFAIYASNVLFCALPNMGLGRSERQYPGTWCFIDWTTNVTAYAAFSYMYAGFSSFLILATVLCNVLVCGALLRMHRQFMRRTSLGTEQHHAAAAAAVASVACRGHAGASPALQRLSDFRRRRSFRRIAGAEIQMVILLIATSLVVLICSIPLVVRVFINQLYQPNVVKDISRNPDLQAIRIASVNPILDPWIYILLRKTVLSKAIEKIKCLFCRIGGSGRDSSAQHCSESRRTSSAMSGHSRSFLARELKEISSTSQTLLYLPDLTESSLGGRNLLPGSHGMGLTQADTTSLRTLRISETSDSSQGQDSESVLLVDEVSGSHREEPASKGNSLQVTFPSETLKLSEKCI

Ki [1]: 0.24 nM
SMILES: O=C(O)CCCCCCN1C(=O)CC[C@@H]1/C=C/[C@@H](O)Cc1cccc(C#Cc2ccccc2)c1 [Example 2(pp), (15α,13E)-9-Oxo-15-hydroxy-16-(3-(2-phenylethynyl)phenyl)-17,18,19,20-tetranor-8-azaprost-13-enoic acid]

SMILES: O=C(O)CCCSCCN1C(=O)CC[C@@H]1/C=C/[C@@H](O)Cc1cccc(Cl)c1 [Example 3 (b), (15α,13E)-9-Oxo-15-hydroxy-16-(3-chlorophenyl)-17,18,19,20-tetranor-5-thia-8-azaprost-13-enoic acid]
Arthritic Score (Means ± SE) ([2]; 300 μg/kg orally 3 times a day): 19.3 ± 1.4*

SMILES: O=C1CC[C@H](/C=C/[C@@H](O)Cc2ccc(F)cc2)N1CCSCCCCO [Example 4 (h), (15α,13E)-9-Oxo-15-hydroxy-16-(4-fluorophenyl)-17,18,19,20-tetranor-5-thia-8-azaprost-13-en-1-ol]
Arthritic Score (Means ± SE) ([2]; 300 μg/kg orally 3 times a day): 9.8 ± 1.9*

SMILES: Cc1ccc(C[C@H](O)/C=C/[C@H]2CCC(=O)N2CCSCCCC(=O)O)o1 [Example 3 (kk), (15α,13E)-9-Oxo-5-hydroxy-16-(5-methylfuran-2-yl)-17,18,19,20-tetranor-5-thia-8-azaprost-13-enoic acid]
Arthritic Score (Means ± SE) ([2]; 100 μg/kg orally 3 times a day): 11.9 ± 3.6*

SMILES: O=C(O)CCCSCCN1C(=O)CC[C@@H]1/C=C/[C@@H](O)Cc1ccc(F)cc1 [Example 3 (l), (15α,13E)-9-Oxo-15-hydroxy-16-(4-fluorophenyl)-17,18,19,20-tetranor-5-thia-8-azaprost-13-enoic acid]
Arthritic Score (Means ± SE) ([2]; 100 μg/kg orally 3 times a day): 16.3 ± 3.0*

Ki [1]: 0.71 nM
SMILES: CCCc1cccc(C[C@H](O)/C=C/[C@H]2CCC(=O)N2CCSCCCC(=O)O)c1 [Example 3(e), (15α,13E)-9-Oxo-15-hydroxy-16-(3-propylphenyl)-17,18,19,20-tetranor-5-thia-8-azaprost-13-enoic acid]

SMILES: COCc1cccc(C[C@H](O)/C=C/[C@H]2[C@H](O)CC(=O)[C@@H]2CCSCCCC(=O)OC)c1 [Compound (1), (11α,15α,13E)-9-Oxo-11,15-dihydroxy-16-(3-methoxymethylphenyl)-17,18,19,20-tetranor-5-thiaprost-13-enoic acid methyl ester]
Bone Density ([3]; callus region): 42.8 ± 2.58 mg/cm^2
Fracture Strength ([3]; three-point bending test): 30.4 ± 12.4% of intact
